Molecular target: T1, AXL (Homo sapiens, UniProt P30530)
T1 construct: purchased Thermo Fisher Scientific (Life Technologies) SelectScreen
Experiment: SelectScreen Z'LYTE
Assay type: biochemical
In short: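 Percent values come from Thermo SelectScreen profiling of NU5455, combining activity and binding assays. CSF1R was run in Z'LYTE format at Km app ATP, and CAMK1 in Adapta format with ATP listed at 10.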

T1 sequence (P30530 26-894): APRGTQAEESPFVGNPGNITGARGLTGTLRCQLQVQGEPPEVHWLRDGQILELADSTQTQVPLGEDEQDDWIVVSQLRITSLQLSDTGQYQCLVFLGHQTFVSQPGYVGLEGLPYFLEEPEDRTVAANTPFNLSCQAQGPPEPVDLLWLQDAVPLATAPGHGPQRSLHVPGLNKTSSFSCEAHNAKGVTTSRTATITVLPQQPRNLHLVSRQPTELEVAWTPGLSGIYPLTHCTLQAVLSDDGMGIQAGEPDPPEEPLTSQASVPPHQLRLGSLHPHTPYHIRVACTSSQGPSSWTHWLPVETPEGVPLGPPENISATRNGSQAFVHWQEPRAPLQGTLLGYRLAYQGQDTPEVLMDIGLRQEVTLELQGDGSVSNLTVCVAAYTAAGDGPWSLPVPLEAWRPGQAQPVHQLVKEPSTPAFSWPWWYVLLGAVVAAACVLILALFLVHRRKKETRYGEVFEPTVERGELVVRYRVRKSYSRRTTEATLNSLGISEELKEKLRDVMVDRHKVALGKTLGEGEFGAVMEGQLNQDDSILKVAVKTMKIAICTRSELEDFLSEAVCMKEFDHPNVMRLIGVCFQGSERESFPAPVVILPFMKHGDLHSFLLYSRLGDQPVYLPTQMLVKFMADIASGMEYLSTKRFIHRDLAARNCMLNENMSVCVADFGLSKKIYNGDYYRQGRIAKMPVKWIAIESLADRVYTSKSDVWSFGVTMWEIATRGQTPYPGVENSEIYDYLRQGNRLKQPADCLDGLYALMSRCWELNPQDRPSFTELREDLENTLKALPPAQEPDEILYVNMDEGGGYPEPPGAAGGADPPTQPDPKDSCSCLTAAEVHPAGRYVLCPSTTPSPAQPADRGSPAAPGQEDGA

Structure (SMILES): CN(C(=O)CN1CCOCC1)c1ccc2sc3c(-c4cccc5c(=O)cc(N6CC7CCC(C6)O7)oc45)cccc3c2c1 [NU5455]
- inhibition at 1 µM: -4.2%

Reference: publication PMC6934184, “Selective DNA-PKcs inhibition extends the therapeutic index of localized radiotherapy and chemotherapy” (The Journal of Clinical Investigation, 2019)
